target: human α2δ-1 subunit of Cav2.2 calcium channel (Homo sapiens (Human), UniProt P54289); assay: Binding assay to human α2δ-1 subunit of Cav2.2 calcium channel ([3H]-Gabapentin); conditions: Table 2, dual compounds; [3H]-Gabapentin binding; read-out: Ki (nM) α2δ-1
How it was run: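 Radioactivity on dried GF/C filters quantified by scintillation after filtration and three cold Tris-HCl (pH 7.4) washes. Incubation ran 60 min at 27° C with [3H]-gabapentin; 10 μM pregabalin gave nonspecific binding.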

human α2δ-1 subunit of Cav2.2 calcium channel, sequence (P54289 25-1103): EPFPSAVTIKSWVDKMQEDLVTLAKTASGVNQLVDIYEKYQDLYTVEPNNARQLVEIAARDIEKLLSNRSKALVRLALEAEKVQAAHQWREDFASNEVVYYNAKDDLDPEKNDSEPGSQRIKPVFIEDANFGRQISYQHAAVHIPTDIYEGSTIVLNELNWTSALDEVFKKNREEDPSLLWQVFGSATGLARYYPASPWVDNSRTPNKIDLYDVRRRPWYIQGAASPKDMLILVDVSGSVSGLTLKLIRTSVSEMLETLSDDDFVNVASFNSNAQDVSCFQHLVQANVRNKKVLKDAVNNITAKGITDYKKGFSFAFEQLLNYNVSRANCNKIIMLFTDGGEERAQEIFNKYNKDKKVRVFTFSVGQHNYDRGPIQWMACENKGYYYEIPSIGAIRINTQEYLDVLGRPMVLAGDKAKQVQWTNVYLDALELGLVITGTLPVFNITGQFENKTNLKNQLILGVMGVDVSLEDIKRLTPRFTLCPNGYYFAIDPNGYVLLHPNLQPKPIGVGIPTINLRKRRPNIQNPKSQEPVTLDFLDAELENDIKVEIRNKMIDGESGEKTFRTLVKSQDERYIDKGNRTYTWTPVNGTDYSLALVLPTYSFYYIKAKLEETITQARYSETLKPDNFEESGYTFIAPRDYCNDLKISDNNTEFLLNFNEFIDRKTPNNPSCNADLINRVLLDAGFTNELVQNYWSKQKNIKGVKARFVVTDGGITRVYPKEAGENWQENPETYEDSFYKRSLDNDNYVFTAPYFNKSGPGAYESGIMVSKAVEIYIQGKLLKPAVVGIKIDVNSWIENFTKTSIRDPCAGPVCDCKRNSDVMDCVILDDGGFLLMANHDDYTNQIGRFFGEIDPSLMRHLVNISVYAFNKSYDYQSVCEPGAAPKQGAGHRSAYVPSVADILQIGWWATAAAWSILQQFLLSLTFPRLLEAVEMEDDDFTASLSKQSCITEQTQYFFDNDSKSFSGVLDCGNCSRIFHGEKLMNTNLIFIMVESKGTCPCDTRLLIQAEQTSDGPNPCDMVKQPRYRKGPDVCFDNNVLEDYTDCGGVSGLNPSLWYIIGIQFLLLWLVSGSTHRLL

| Ki [nM] | Compound |
| --- | --- |
| 100 to 500 | CCNc1ncc2c(n1)N(C)CCN(c1cccc(CO[C@H](CCNC)c3cccs3)c1)C2=O [Example 212, (R)-2-(ethylamino)-9-methyl-6-(3-((3-(methylamino)-1-(thiophen-2-yl)propoxy)methyl)phenyl)-6,7,8,9-tetrahydro-5H-pyrimido[4,5-e][1,4]diazepin-5-one] |
| 100 to 500 | CNCCC(OCc1cccc(N2CCN(C)c3nc(OC)ncc3C2=O)c1)c1cccs1 (stereo not drawn) [Example 221, 2-methoxy-9-methyl-6-(3-((3-(methylamino)-1-(thiophen-2-yl)propoxy)methyl)phenyl)-6,7,8,9-tetrahydro-5H-pyrimido[4,5-e][1,4]diazepin-5-one] |

| Compound | Ki [nM] |
| --- | --- |
| CCNc1ncc2c(n1)N(C)CCN(c1cccc(COC(CCNC)c3cccs3)c1)C2=O (stereo not drawn) [Example 211, 2-(ethylamino)-9-methyl-6-(3-((3-(methylamino)-1-(thiophen-2-yl)propoxy)methyl)phenyl)-6,7,8,9-tetrahydro-5H-pyrimido[4,5-e][1,4]diazepin-5-one] | 100 to 500 |

same assay, conditions: binding to α2δ-1, [3H]-Gabapentin; read-out: Ki (nM) α2δ-1

| Ki [nM] | Compound |
| --- | --- |
| > 3000 | CCNc1ncc2c(n1)N(C)CCN(c1cccc(-c3nnc(CNC)o3)c1)C2=O [Example 187, 2-(ethylamino)-9-methyl-6-(3-(5-((methylamino)methyl)-1,3,4-oxadiazol-2-yl)phenyl)-6,7,8,9-tetrahydro-5H-pyrimido[4,5-e][1,4]diazepin-5-one] |
| > 3000 | CCNc1ncc2c(n1)N(C)CCN(c1ccccc1OC(CCNC)c1ccccc1)C2=O (stereo not drawn) [Example 188, 2-(ethylamino)-9-methyl-6-(2-(3-(methylamino)-1-phenylpropoxy)phenyl)-6,7,8,9-tetrahydro-5H-pyrimido[4,5-e][1,4]diazepin-5-one] |
| 500 to 3000 | CCNc1ncc2c(n1)N(C)CCN(c1cccc(COC(CCNC)C(C)C)c1)C2=O (stereo not drawn) [Example 189, 2-(ethylamino)-9-methyl-6-(3-(((4-methyl-1-(methylamino)pentan-3-yl)oxy)methyl)phenyl)-6,7,8,9-tetrahydro-5H-pyrimido[4,5-e][1,4]diazepin-5-one] |
| > 3000 | CNCCC(OCc1cccc(N2CCN(C)c3nc(SC)ncc3C2=O)c1)C(C)C (stereo not drawn) [Example 190, 9-methyl-6-(3-(((4-methyl-1-(methylamino)pentan-3-yl)oxy)methyl)phenyl)-2-(methylthio)-6,7,8,9-tetrahydro-5H-pyrimido[4,5-e][1,4]diazepin-5-one] |
| 500 to 3000 | CCNc1ncc2c(n1)N(C)CCN(c1cccc(COC(C)CCNC)c1)C2=O (stereo not drawn) [Example 191, 2-(ethylamino)-9-methyl-6-(3-(((4-(methylamino)butan-2-yl)oxy)methyl)phenyl)-6,7,8,9-tetrahydro-5H-pyrimido[4,5-e][1,4]diazepin-5-one] |
| > 3000 | CNCCC(C)OCc1cccc(N2CCN(C)c3nc(SC)ncc3C2=O)c1 (stereo not drawn) [Example 192, 9-methyl-6-(3-(((4-(methylamino)butan-2-yl)oxy)methyl)phenyl)-2-(methylthio)-6,7,8,9-tetrahydro-5H-pyrimido[4,5-e][1,4]diazepin-5-one] |
| > 3000 | CCNc1ncc2c(n1)N(C)CCN(Cc1cccc(OC(CNC)c3ccccc3)c1)C2=O (stereo not drawn) [Example 200, 2-(ethylamino)-9-methyl-6-(3-(2-(methylamino)-1-phenylethoxy)benzyl)-6,7,8,9-tetrahydro-5H-pyrimido[4,5-e][1,4]diazepin-5-one] |
| 500 to 3000 | CCNc1ncc2c(n1)N(C)CCN(Cc1ccc(CNC)cc1)C2=O [Example 202, 2-(ethylamino)-9-methyl-6-(4-((methylamino)methyl)benzyl)-6,7,8,9-tetrahydro-5H-pyrimido[4,5-e][1,4]diazepin-5-one] |
| 100 to 500 | CCNc1ncc2c(n1)N(C)CCN(c1cccc(CO[C@H](CCNC)c3cccs3)c1)C2=O [Example 212, (R)-2-(ethylamino)-9-methyl-6-(3-((3-(methylamino)-1-(thiophen-2-yl)propoxy)methyl)phenyl)-6,7,8,9-tetrahydro-5H-pyrimido[4,5-e][1,4]diazepin-5-one] |
| 500 to 3000 | CCNc1ncc2c(n1)N(C)CCN(c1cccc(OC(CCNCCF)c3cccs3)c1)C2=O (stereo not drawn) [Example 220, 2-(ethylamino)-6-(3-(3-((2-fluoroethyl)amino)-1-(thiophen-2-yl)propoxy)phenyl)-9-methyl-6,7,8,9-tetrahydro-5H-pyrimido[4,5-e][1,4]diazepin-5-one] |
| 500 to 3000 | CNCCC(OCc1cccc(N2CCN(C)c3nc(OC)ncc3C2=O)c1)c1cccs1 (stereo not drawn) [Example 221, 2-methoxy-9-methyl-6-(3-((3-(methylamino)-1-(thiophen-2-yl)propoxy)methyl)phenyl)-6,7,8,9-tetrahydro-5H-pyrimido[4,5-e][1,4]diazepin-5-one] |
| 100 to 500 | CCNc1cc2c(cn1)C(=O)N(c1cccc(COC(CCNC)c3cccs3)c1)CCN2C (stereo not drawn) [Example 228, 8-(ethylamino)-1-methyl-4-(3-((3-(methylamino)-1-(thiophen-2-yl)propoxy)methyl)phenyl)-1,2,3,4-tetrahydro-5H-pyrido[4,3-e][1,4]diazepin-5-one] |
| > 3000 | CCNc1ncc2c(n1)N(C)CCN(c1cccc(C3=CCN(C(=O)OC(C)(C)C)CC3)c1)C2=O [Example 233, tert-Butyl 4-(3-(2-(ethylamino)-9-methyl-5-oxo-5,7,8,9-tetrahydro-6H-pyrimido[4,5-e][1,4]diazepin-6-yl)phenyl)-3,6-dihydropyridine-1(2H)-carboxylate] |
| > 3000 | CCNc1ncc2c(n1)N(C)CCN(c1cccc(C3CCN(C(=O)OC(C)(C)C)CC3)c1)C2=O [Example 234, tert-Butyl 4-(3-(2-(ethylamino)-9-methyl-5-oxo-5,7,8,9-tetrahydro-6H-pyrimido[4,5-e][1,4]diazepin-6-yl)phenyl)piperidine-1-carboxylate] |
| 100 to 500 | CCNc1ncc2c(n1)N(C)CCN(c1cccc(C3CCNCC3)c1)C2=O [Example 235, 2-(Ethylamino)-9-methyl-6-(3-(piperidin-4-yl)phenyl)-6,7,8,9-tetrahydro-5H-pyrimido[4,5-e][1,4]diazepin-5-one] |
| 500 to 3000 | CCNc1ncc2c(n1)N(C)CCN(c1cccc(-n3cc(CN(CC4CC4)CC4CC4)nn3)c1)C2=O [Example 245, 6-(3-(4-((bis (cyclopropylmethyl)amino)methyl)-1H-1,2,3-triazol-1-yl)phenyl)-2-(ethylamino)-9-methyl-6,7,8,9-tetrahydro-5H-pyrimido[4,5-e][1,4]diazepin-5-one] |
| 500 to 3000 | CCNc1ncc2c(n1)N(C)CCN(c1cccc(-n3cc(CCN(C)Cc4ccccc4)nn3)c1)C2=O [Example 247, 6-(3-(4-(2-(benzyl(methyl)amino)ethyl)-1H-1,2,3-triazol-1-yl)phenyl)-2-(ethylamino)-9-methyl-6,7,8,9-tetrahydro-5H-pyrimido[4,5-e][1,4]diazepin-5-one] |
| 100 to 500 | CCNc1ncc2c(n1)N(C)CCN(c1cccc(-n3cc(CCN(C)C)nn3)c1)C2=O [Example 248, 6-(3-(4-(2-(dimethylamino)ethyl)-1H-1,2,3-triazol-1-yl)phenyl)-2-(ethylamino)-9-methyl-6,7,8,9-tetrahydro-5H-pyrimido[4,5-e][1,4]diazepin-5-one] |
| 100 to 500 | CCNc1ncc2c(n1)N(C)CCN(c1cccc(-n3cc(CCN(C)CCc4ccccc4)nn3)c1)C2=O [Example 249, 2-(ethylamino)-9-methyl-6-(3-(4-(2-(methyl(phenethyl)amino)ethyl)-1H-1,2,3-triazol-1-yl)phenyl)-6,7,8,9-tetrahydro-5H-pyrimido[4,5-e][1,4]diazepin-5-one] |
| 500 to 3000 | CCNc1ncc2c(n1)N(C)CCN(c1cccc(Cn3cc(CN(C)Cc4ccccc4)nn3)c1)C2=O [Example 250, 6-(3-((4-((benzyl (methyl)amino)methyl)-1H-1,2,3-triazol-1-yl)methyl)phenyl)-2-(ethylamino)-9-methyl-6,7,8,9-tetrahydro-5H-pyrimido[4,5-e][1,4]diazepin-5-one] |

| Compound | Ki [nM] |
| --- | --- |
| CCNc1ncc2c(n1)N(C)CCN(c1cccc(COC(CCNC)c3cccs3)c1)C2=O (stereo not drawn) [Example 211, 2-(ethylamino)-9-methyl-6-(3-((3-(methylamino)-1-(thiophen-2-yl)propoxy)methyl)phenyl)-6,7,8,9-tetrahydro-5H-pyrimido[4,5-e][1,4]diazepin-5-one] | 100 to 500 |
